Laboratory results from patent US4667030A, “Hydrazide succinimide derivatives of antineoplastic indole-dihydroindole alkaloids” (priority 1985, dated 1987).
Values after ≈ are worked out from the molar mass of the structure shown. Counter-ions that a name gives are not always drawn.

What was measured:
[1] = system: CCRF-CEM, a human acute lymphoblastic leukemia cell line; assay: CCRF-CEM cytotoxicity screen (cytostatic activity); assay type: cell-based; conditions: for IC50: Homo sapiens, read-out: IC50 (50% minimum inhibitory concentration)
Procedure: The compounds of this invention have utility as anti-neoplastic compounds active against transplanted tumors in mice. They also have […]. As evidence of such utility, the cytostatic activity of the compounds was measured by standard procedures against CCRF-CEM, a human acute lymphoblastic leukemia cell line. In the table, column 1 gives the name of the compound, and column 2 the 50% minimum inhibitory concentration of the drug from column 1 in mcg./ml.

6C3HED lymphosarcoma = assay: In vivo test, transplanted 6C3HED lymphosarcoma in mice; conditions: for % INHIBITION / In vivo test: Toxic: 6C3HED; for activity against transplanted tumor: 6C3HED lymphosarcoma, mice
[2] = system: X-5563 plasma cell myeloma; assay: In vivo test, transplanted X-5563 plasma cell myeloma in mice; conditions: for activity against transplanted tumor: X-5563 plasma cell myeloma, mice
B-16 Sub.C. melanoma = assay: In vivo test, transplanted B-16 Sub.C. melanoma in mice; conditions: for activity against transplanted tumor: B-16 Sub.C. melanoma, mice
C-26 colon carcinoma = assay: In vivo test, transplanted C-26 colon carcinoma in mice; conditions: for activity against transplanted tumor: C-26 colon carcinoma, mice
[3] = system: vincristine-resistant leukemias; conditions: common neoplasms including germ-cell tumors; cited from earlier work

Work on `CC[C@H]1C[C@@H]2CN(CCc3c([nH]c4ccccc34)[C@@](C(=O)OC)(c3cc4c(cc3OC)N(C)[C@H]3[C@@](O)(C(=O)NN5C(=O)CCC5=O)[C@H](O)[C@]5(CC)C=CCN6CC[C@]43[C@@H]65)C2)C1` [4'-deoxy-4-desacetylleurosidine 3-carboxhydrazide N^2-succinimide sulfate] yielded an IC50 [1] of 0.075 µg/mL.

In the case of `CC[C@]1(O)C[C@@H]2CN(CCc3c([nH]c4ccccc34)[C@@](C(=O)OC)(c3cc4c(cc3OC)N(C)[C@H]3[C@@](O)(C(=O)NN5C(=O)CCC5=O)[C@H](O)[C@]5(CC)C=CCN6CC[C@]43[C@@H]65)C2)C1` [4-Desacetyl VLB 3-carboxhydrazide N^2 --succinimide sulfate], the IC50 [1] is reported as 0.02 µg/mL, the “% INHIBITION” value (6C3HED lymphosarcoma; i.v. x 1, 1.25 mg/kg) is reported as 100% and the “% INHIBITION” value (6C3HED lymphosarcoma; i.v. x 1, 2.5 mg/kg) is reported as 100%. The “In vivo test: Toxic” value (6C3HED lymphosarcoma; i.v. x 1, 5 mg/kg) was “Toxic”.

With `CC[C@]1(O)C[C@@H]2CN(CCc3c([nH]c4ccccc34)[C@@](C(=O)OC)(c3cc4c(cc3OC)N(C)[C@H]3[C@@](O)(C(=O)NN5C(=O)CCCC5=O)[C@H](O)[C@]5(CC)C=CCN6CC[C@]43[C@@H]65)C2)C1` [4-Desacetyl VLB Hydrazide N^2 --Glutarimide Sulfate] the “% INHIBITION” value (6C3HED lymphosarcoma; i.v. x 1, 0.0625 mg/kg) was 79%, the “% INHIBITION” value (6C3HED lymphosarcoma; i.v. x 1, 0.125 mg/kg) was 80% and the “% INHIBITION” value (6C3HED lymphosarcoma; i.v. x 1, 0.25 mg/kg) was 100%. The “% INHIBITION” value (6C3HED lymphosarcoma; i.v. x 1, 0.5 mg/kg) was 100%, the “% INHIBITION” value (6C3HED lymphosarcoma; i.v. x 1, 1 mg/kg) was 100% and the “In vivo test: Toxic” value (6C3HED lymphosarcoma; i.v. x 1, 2 mg/kg) was “Toxic”. For the same compound, the “In vivo test: Toxic” value (6C3HED lymphosarcoma; i.v. x 1, 4 mg/kg) was “Toxic” and the “In vivo test: Toxic” value (6C3HED lymphosarcoma; i.v. x 1, 8 mg/kg) was “Toxic”.

For `CCC(=O)O[C@@H]1[C@]2(CC)C=CCN3CC[C@@]4(c5cc([C@@]6(C(=O)OC)C[C@H]7CN(CCc8c6[nH]c6ccccc86)C[C@](O)(CC)C7)c(OC)cc5N(C)[C@H]4[C@@]1(O)C(=O)NN1C(=O)CCC1=O)[C@@H]32` [4-Propionyl VLB 3-carboxhydrazide N^2 --succinimide sulfate], the IC50 [1] was 0.01 µg/mL, the “% INHIBITION” value (6C3HED lymphosarcoma; i.v. x 1, 1.25 mg/kg) was 100% and the “% INHIBITION” value (6C3HED lymphosarcoma; i.v. x 1, 2.5 mg/kg) was 100%. For the same compound, the “In vivo test: Toxic” value (6C3HED lymphosarcoma; i.v. x 1, 5 mg/kg) was “Toxic”.

Compound `CC[C@]1(O)C[C@@H]2CN(CCc3c([nH]c4ccccc34)[C@@](C(=O)OC)(c3cc4c(cc3OC)N(C)[C@H]3[C@@](O)(C(=O)NN5C(=O)CCC5=O)[C@H](OC(=O)CCC(=O)O)[C@]5(CC)C=CCN6CC[C@]43[C@@H]65)C2)C1` [4-Succinoyl VLB 3-carboxhydrazide N^2-succinimide] has an IC50 [1] of 0.5 µg/mL (≈ 0.526 µM).

With `CC[C@]1(O)C[C@@H]2CN(CCc3c([nH]c4ccccc34)[C@@](C(=O)OC)(c3cc4c(cc3OC)N(C)[C@H]3[C@@](O)(C(=O)NN5C(=O)CCCC5=O)[C@H](O)[C@]5(CC)C=CCN6CC[C@]43[C@@H]65)C2)C1` [4-desacetyl VLB 3-carboxhydrazide N^2-glutarimide] the “activity against transplanted tumor” value [2] was “outstanding activity”, the “activity against transplanted tumor” value (B-16 Sub.C. melanoma) was “outstanding activity” and the “activity against transplanted tumor” value (6C3HED lymphosarcoma) was “outstanding activity”. The “activity against transplanted tumor” value (C-26 colon carcinoma) was “outstanding activity”.

In the case of `CC[C@]1(O)C[C@@H]2CN(CCc3c([nH]c4ccccc34)[C@@](C(=O)OC)(c3cc4c(cc3OC)N(C)[C@H]3[C@@](O)(C(=O)NN5C(=O)CCC5=O)[C@H](O)[C@]5(CC)C=CCN6CC[C@]43[C@@H]65)C2)C1` [4-desacetyl VLB 3-carboxhydrazide N^2-succinimide], the “activity against transplanted tumor” value [2] is reported as “outstanding activity”, the “activity against transplanted tumor” value (B-16 Sub.C. melanoma) is reported as “outstanding activity” and the “activity against transplanted tumor” value (6C3HED lymphosarcoma) is reported as “outstanding activity”. The “activity against transplanted tumor” value (C-26 colon carcinoma) was “outstanding activity”.

In the case of `CC[C@]1(O)C[C@@H]2CN(CCc3c([nH]c4ccccc34)[C@@](C(=O)OC)(c3cc4c(cc3OC)N(C)[C@H]3[C@@](O)(C(N)=O)[C@H](O)[C@]5(CC)C=CCN6CC[C@]43[C@@H]65)C2)C1` [vindesine, 4-desacetyl VLB 3-carboxamide], the “effectiveness in treating leukemias and neoplasms” value [3] is given as “effective in treating some vincristine-resistant leukemias in addition to many common neoplasms including germ-cell tumors”.

With “VLB 3-carboxhydrazide N^2 --succinimide sulfate” the “% INHIBITION” value ([2]; X5563, i.v. 1 & 7, dose 0.25) was 25%, the “% INHIBITION” value ([2]; X5563, i.v. 1 & 7, dose 0.5) was 30% and the “% INHIBITION” value ([2]; X5563, i.v. 1 & 7, dose 1) was 59%. The “% INHIBITION” value ([2]; X5563, i.v. 1 & 7, dose 2) was 94%, the “In vivo test: Toxic” value ([2]; X5563, i.v. 1 & 7, dose 4) was “Toxic” and the “IC50 (50% minimum inhibitory concentration)” value [1] was 0.01 µg/mL. For the same compound, the “% INHIBITION” value (B-16 Sub.C. melanoma; B-16 Sub. C., i.v. 1 & 7, dose 0.5) was 51%, the “% INHIBITION” value (B-16 Sub.C. melanoma; B-16 Sub. C., i.v. 1 & 7, dose 1) was 82% and the “% INHIBITION” value (B-16 Sub.C. melanoma; B-16 Sub. C., i.v. 1 & 7, dose 2) was 91%. For the same compound, the “In vivo test: Toxic” value (B-16 Sub.C. melanoma; B-16 Sub. C., i.v. 1 & 7, dose 4) was “Toxic”, the “% INHIBITION” value (B-16 Sub.C. melanoma; B-16 Sub. C., i.v. 1 & 7, dose 25 (so in the source)) was 8% and the “% INHIBITION” value (6C3HED lymphosarcoma; i.v. x 1, 0.0625 mg/kg) was 11%. For the same compound, the “% INHIBITION” value (6C3HED lymphosarcoma; i.v. x 1, 0.125 mg/kg) was 94%, the “% INHIBITION” value (6C3HED lymphosarcoma; i.v. x 1, 0.25 mg/kg) was 100% and the “% INHIBITION” value (6C3HED lymphosarcoma; i.v. x 1, 0.5 mg/kg) was 100%. The “% INHIBITION” value (6C3HED lymphosarcoma; i.v. x 1, 1 mg/kg) was 100%, the “In vivo test: Toxic” value (6C3HED lymphosarcoma; i.v. x 1, 2 mg/kg) was “Toxic” and the “In vivo test: Toxic” value (6C3HED lymphosarcoma; i.v. x 1, 4 mg/kg) was “Toxic”. The “% INHIBITION” value (C-26 colon carcinoma; C-26, i.v. 1 & 7, dose 0.25) was 0%, the “% INHIBITION” value (C-26 colon carcinoma; C-26, i.v. 1 & 7, dose 0.5) was 0% and the “% INHIBITION” value (C-26 colon carcinoma; C-26, i.v. 1 & 7, dose 1) was 50%. For the same compound, the “% INHIBITION” value (C-26 colon carcinoma; C-26, i.v. 1 & 7, dose 2) was 73% and the “In vivo test: Toxic” value (C-26 colon carcinoma; C-26, i.v. 1 & 7, dose 4) was “Toxic”.
